Experimental data: PMC4710668, “Bioactivation of food genotoxicants 5-hydroxymethylfurfural and furfuryl alcohol by sulfotransferases from human, mouse and rat: a comparative study” (Archives of Toxicology, 2014)

Columns and labels:
Assay in all cases: FFA sulfoconjugation assay (N6-MF-A formation with adenosine as scavenger)
Assay type in all cases: biochemical
[1] = biological target: T1, hSULT2B1a (Homo sapiens, UniProt O00204)
T1 construct: made in house; host or cells: Salmonella typhimurium TA1538 (cytosolic fraction, not purified)
T1 sequence (O00204 1-350 isoform O00204-2): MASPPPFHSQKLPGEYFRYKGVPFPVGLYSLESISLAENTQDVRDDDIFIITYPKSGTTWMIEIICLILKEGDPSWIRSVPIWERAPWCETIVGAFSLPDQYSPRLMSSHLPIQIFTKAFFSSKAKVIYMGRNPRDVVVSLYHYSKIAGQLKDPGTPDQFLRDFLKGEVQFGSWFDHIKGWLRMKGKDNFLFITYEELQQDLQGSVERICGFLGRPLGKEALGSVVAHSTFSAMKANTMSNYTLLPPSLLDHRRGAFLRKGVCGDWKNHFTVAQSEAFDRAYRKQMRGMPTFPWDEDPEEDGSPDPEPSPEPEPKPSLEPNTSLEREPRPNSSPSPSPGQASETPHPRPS
Procedure: (§1) Cytosolic fractions containing individual SULT forms were prepared from transgenic S. typhimurium TA1538. Table S1 in the Supplementary Material provides a summary of the thirty SULTs used in the current study together with references describing the cloning of the respective S. typhimurium TA1538 strains. The expressed SULT forms are denoted with the prefixes h, m and r for human, mouse and rat enzymes, respectively. Bacteria were grown in Luria Broth medium containing ampicillin (100 µg/ml) by stirring for 8 h at 200 revolutions/min at 37 °C. The bacterial suspensions were centrifuged at 5,000 g for 10 min. The sediments were washed twice with 25 ml of 10 mM potassium phosphate buffer (pH 7.4)/50 mM potassium chloride (KCP buffer) and centrifuged again. The pellets were taken up in 800 µl KCP buffer and sonicated thrice for 15 s with 30 s pauses in between. The soluble fraction was attained by centrifuging for 1 h at 100,000 g. The supernatants (in the following termed cytosolic preparations) were frozen at −80 °C. The protein concentrations were determined according to a bicinchoninic acid (BCA) assay protocol. The SULT concentrations in the cytosolic preparations were estimated after electrophoretic separation and immunodetection using inclusion bodies of different SULT forms as standards (Teubner et al. [2007]). The preparation of SULT inclusion bodies and the immunodetection of SULTs is described in the Supplementary Material, which also contains a representative immunoblot of different amounts of rSult1a1standard and a cytosolic preparation of S. typhimurium expressing rSult1a1 (Fig. S1).
(§2) The reaction mixtures were prepared as described for HMF. In addition, they contained 10 mM adenosine as a nucleophilic scavenger. Following incubation for 20 min at 37 °C, sulfoconjugation reactions were stopped by adding 100 µl cold methanol containing 175 fmol of [^15N5]N ^6-MF-A as the internal standard, mixed and centrifuged at 15,000 g for 10 min. The clear supernatants were subjected to UPLC-MS/MS analyses. Incubations were performed as quadruplicates. At higher concentrations, FFA reacts spontaneously with adenosine at low, but detectable, levels. To correct for the SULT-independent adduct formation, mixtures with SULT-deficient cytosols were carried along simultaneously in duplicate. Controls were subtracted from the experimental samples.
(§3) The ribonucleoside adduct N ^6-((furan-2-yl)methyl)-adenosine (N ^6-MF-A) was analyzed by isotope-dilution UPLC-MS/MS with the same system described above using a HSS T3 column (1.8 µm, 2.1 × 100 mm, Waters). Samples of 8 µl were eluted with 10 mM ammonium bicarbonate buffer, pH 8.0 (A) and methanol (B) using an 6-min gradient from 98 % solvent A to 15 % solvent A at 0.35 ml/min flow rate (Yin et al. [2013]). The electrospray interface of the mass spectrometer operated in the positive ion mode. The fragmentations of N ^6-MF-A into the aglycone cation [N ^6-((furan-2-yl)methyl)-adenine-H]^+ (m/z = 348.1 → 216.1), the cleavage of the 2-methylfuranyl cation (m/z = 348.1 → 81.0) and the release of [N ^6-methyl-adenine-H]^+ (m/z = 348.1 → 148.0) were monitored together with the corresponding fragmentations of the isotope-labeled internal standard [^15N5]N ^6-MF-A for the formation of the aglycone (m/z = 353.1 → 221.1), the 2-methylfuran cation (m/z = 353.1 → 81.0) and ^15N5-labeled N ^6-methyl-adenine (m/z = 353.1 → 153.0). The N ^6-MF-A content of the incubation mixture was calculated from the ratio of peak areas resulting from the total ion current of all three MRM signals of the analyte. For the fragmentation of N ^6-MF-A ([^15N5]N ^6-MF-A), collision energies were 20, 25 and 35 eV for the transitions m/z = 348.1 → 216.1 (m/z = 353.1 → 221.1), m/z = 348.1 → 148.0 (m/z = 353.1 → 153.0) and m/z = 348.1 → 81.0 (m/z = 353.1 → 81.0), respectively. […]

[2] = biological target: T2, rSult2a1 (Rattus norvegicus, UniProt P15709)
T2 construct: made in house; host or cells: Salmonella typhimurium TA1538 (cytosolic fraction, enzyme not purified)
T2 sequence (P15709 1-284): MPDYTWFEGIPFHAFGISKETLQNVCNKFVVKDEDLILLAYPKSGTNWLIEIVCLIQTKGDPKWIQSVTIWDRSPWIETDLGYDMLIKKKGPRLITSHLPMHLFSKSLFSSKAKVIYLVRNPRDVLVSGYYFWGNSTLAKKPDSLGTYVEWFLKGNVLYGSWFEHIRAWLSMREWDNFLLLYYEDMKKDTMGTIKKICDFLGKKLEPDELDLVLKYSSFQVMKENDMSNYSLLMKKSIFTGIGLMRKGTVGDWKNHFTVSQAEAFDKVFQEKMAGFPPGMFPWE
Procedure: as §1, §2, §3

[3] = biological target: T3, mSult2b1b (Mus musculus, UniProt O35400)
T3 construct: made in house; host or cells: Salmonella typhimurium TA1538 (cytosolic fraction, enzyme not purified)
T3 sequence (O35400 1-338): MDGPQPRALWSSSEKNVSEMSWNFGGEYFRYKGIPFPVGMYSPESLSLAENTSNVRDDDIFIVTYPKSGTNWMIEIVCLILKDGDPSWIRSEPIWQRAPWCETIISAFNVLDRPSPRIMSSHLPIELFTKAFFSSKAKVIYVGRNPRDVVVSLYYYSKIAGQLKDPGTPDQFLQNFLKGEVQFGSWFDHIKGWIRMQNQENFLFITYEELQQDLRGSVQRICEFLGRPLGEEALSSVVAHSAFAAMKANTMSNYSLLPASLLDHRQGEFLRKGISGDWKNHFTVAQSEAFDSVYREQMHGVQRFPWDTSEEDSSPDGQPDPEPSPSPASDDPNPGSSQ
Procedure: as §1, §2, §3

[4] = biological target: T4, hSULT1A2 (Homo sapiens, UniProt P50226)
T4 construct: made in house; host or cells: Salmonella typhimurium TA1538 (cytosolic fraction, not purified)
T4 sequence (P50226 whole entry): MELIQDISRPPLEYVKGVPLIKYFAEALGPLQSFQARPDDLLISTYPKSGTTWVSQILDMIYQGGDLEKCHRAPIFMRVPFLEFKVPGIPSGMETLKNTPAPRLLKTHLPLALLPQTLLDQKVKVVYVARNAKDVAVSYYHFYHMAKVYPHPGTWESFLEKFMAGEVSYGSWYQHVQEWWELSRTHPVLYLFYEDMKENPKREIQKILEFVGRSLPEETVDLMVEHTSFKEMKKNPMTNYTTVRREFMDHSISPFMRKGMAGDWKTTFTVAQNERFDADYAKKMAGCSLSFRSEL
Procedure: as §1, §2, §3

OCc1ccco1 [FFA, furfuryl alcohol]
Rate of N6-MF-A formation ([1]; 0.1 mM FFA): <18 fmol N ^6-MF-A/mg/min
Rate of N6-MF-A formation ([1]; 1 mM FFA): <20 fmol N ^6-MF-A/mg/min
Rate of N6-MF-A formation ([1]; 10 mM FFA): <44 fmol N ^6-MF-A/mg/min
Rate of N6-MF-A formation ([2]; 0.1 mM FFA): <18 fmol N ^6-MF-A/mg/min
Rate of N6-MF-A formation ([2]; 1 mM FFA): 24.8 ± 1.4 fmol N ^6-MF-A/mg/min
Rate of N6-MF-A formation ([2]; 10 mM FFA): 228 ± 7 fmol N ^6-MF-A/mg/min
Rate of N6-MF-A formation ([3]; 0.1 mM FFA): <18 fmol N ^6-MF-A/mg/min
Rate of N6-MF-A formation ([3]; 1 mM FFA): <20 fmol N ^6-MF-A/mg/min
Rate of N6-MF-A formation ([3]; 10 mM FFA): <44 fmol N ^6-MF-A/mg/min
Rate of N6-MF-A formation ([4]; 0.1 mM FFA): <18 fmol N ^6-MF-A/mg/min
Rate of N6-MF-A formation ([4]; 1 mM FFA): 34.8 ± 0.5 fmol N ^6-MF-A/mg/min
Rate of N6-MF-A formation (corr.) ([4]; 1 mM FFA, corrected by actual SULT concentration in the cytosolic preparation): 2,480 ± 30 fmol N ^6-MF-A/mg/min
Rate of N6-MF-A formation ([4]; 10 mM FFA): 150 ± 4 fmol N ^6-MF-A/mg/min
